In ChEMBL document CHEMBL6109155, “Discovery of Phenylacylpiperidine as Novel sEH Inhibitors through Scaffold Hopping of Natural Stilbene” (J Med Chem, 2025):
Activity calls are given as the source filed them. No cut-off for these calls is given here.

Legend:
[1] = tested on: Mus musculus; assay: Anti-inflammatory activity in BALB/c mouse model of carrageenan-induced paw edema assessed as decrease in plasma 14,15-DHET levels at 10 mg/kg, po measured after 6 hrs relative to control; format: functional; design: scale not given: the % may be the effect or the level left
[2] = tested on: RAW264.7; assay: Anti-inflammatory activity in LPS-indeced mouse RAW264.7 cells assessed as reduction in IL-1beta level at 10 uM preincubated for 1 hr followed by LPS addition measured after 24 hrs by ELISA; format: functional, cell-based
[3] = tested on: Mus musculus; assay: Anti-inflammatory activity in CD-1 mouse model of cerulein-induced acute pancreatitis assessed as decrease in inflammatory response in pancreas at 10 mg/kg, ip drug administered at 30 mins and 2.5 hrs post-first cerulein injection and measured after 6 hrs post-first cerulein injection by H and E staining based analysis; format: functional, organism-based; conditions: time 3.5-5.5 hrs

For `COc1cc(CC(=O)N2CCC(NC(=O)NCc3ccc(OC(F)(F)F)cc3)CC2)cc(OC)c1`, the Activity [1] was 69.8%, the Activity [2] was “Active” and the Activity [3] was “Active”.
